Assay results from patent US20260125374A1, “PI3K-ALPHA INHIBITORS AND METHODS OF MAKING AND USING THE SAME” (Relay Therapeutics, Inc., priority 2021, published 2026).
Marks after values point to notes of the source that are not given here.

Experiment: Polymorph screening (equilibration, anti-solvent, slow evaporation, slow cooling, temperature cycling, heating-cooling; XRPD and SFC)
Type: physicochemical
Protocol: This polymorph screening program of compound I-1 free form was performed with two batches of the pure enantiomer. Both batches are crystalline and is assigned as Form A. The polymorphic behaviors of the enantiomer were investigated by equilibration at 25° C. and 50° C., equilibration under a temperature cycle, crystallization from hot saturated solutions by slow cooling, slow evaporation, precipitation by addition of anti-solvent, and DSC heating-cooling cycle experiments. Relative stability of identified polymorphs was investigated by competitive slurry experiments.
(§1) About 50 mg of I-1 Form A was weighed into a 2 mL glass vial and equilibrated in suitable amount of solvents (pretreated by molecular sieves) at 25° C. for 2 weeks with a stirring plate and with protection from light. Obtained suspensions were filtered with 0.45 μm nylon membrane and the solid parts (wet cake) were investigated by XRPD. When differences were observed, additional investigations were performed (e.g. DSC, TGA, ^1H-NMR, SFC).
as §1, with “into” for “into a”, “vials” for “vial”, “50°” for “25°”, “10 days” for “2 weeks”, “investigation was” for “investigations were”
I-1 Form A was dissolved in a good solvent. […] The solvents used were pretreated by molecular sieve. Precipitates were collected by filtration. The solid part (wet cake) was investigated by XRPD. […] When differences were observed, additional investigations were performed (e.g. DSC, TGA, ^1H-NMR, SFC).
Based on approximate solubility results, I-1 Form A was dissolved in suitable amount of solvents (pretreated by molecular sieves). Obtained solutions were filtered by 0.45 μm nylon filter. […] Solid residues were examined for their polymorphic form. When differences were observed, additional investigations were performed (e.g. DSC, TGA, ^1H-NMR, SFC).
Approximate 50 mg of batch I-1 Form A were dissolved in the minimal amount of selected solvents (without pretreatment by molecular sieves) at 50° C. Obtained solutions were filtered by 0.45 μm nylon filter. […] Precipitates were collected by filtration. The solid parts (wet cake) were investigated by XRPD. When differences were observed, additional investigations were performed (e.g. DSC, TGA, ^1H-NMR, SFC). When no precipitation was obtained or only a few solids were obtained, the solutions were placed at 5° C. for crystallization.
About 50 mg of I-1 Form A was equilibrated in different solvents (pretreated by molecular sieves) under a temperature cycle between 5° C. to 50° C. at a heating/cooling rate of 0.2° C./min for 10 cycles and with protection from light. After 10 cycles, precipitates were collected at 5° C. by filtration. The solid parts (wet cake) were investigated by XRPD. When differences were observed, additional investigations were performed (e.g. DSC, TGA, 1H-NMR, SFC).
Polymorphic behavior of I-1 Form A was investigated by two different heating-cooling cycles of DSC. Cycle 1:30° C. to 280° C. at 10° C./min; 280° C. to −20° C. at 20° C./min; reheat to 300° C. at 10° C./min. Cycle 2:30° C. to 280° C. at 10° C./min; 280° C. to-20° C. at 2° C./min; reheat to 300° C. at 10° C./min.

## N#Cc1c(-c2cc(NC(=O)c3cc(F)cc(C(F)(F)F)c3)c3c(c2)C(=O)N[C@H]3c2cc(F)ccc2Cl)ccc2ncnn12 [Compound I-1, (R)-N-(3-(2-chloro-5-fluorophenyl)-6-(5-cyano-[1,2,4]triazolo[1,5-a]pyridin-6-yl)-1-oxoisoindolin-4-yl)-3-fluoro-5-(trifluoromethyl)benzamide]
Equilibration at 50° C. for 10 days in Ethyl acetate
  XRPD: I-1 Form A
Equilibration at 50° C. for 10 days in Isopropyl acetate
  XRPD: I-1 Form A
Equilibration at 50° C. for 10 days in MeOH/water(55:45, v/v) a.w. 0.7
  XRPD: I-1 Form A
Equilibration at 50° C. for 10 days in Methanol
  XRPD: III-1 Form A
Equilibration at 50° C. for 10 days in Methanol, SFC immediately after preparation
  ee %(SFC): ee % (SFC): 48.4%*
Equilibration at 50° C. for 10 days in Methyl ethyl ketone
  XRPD: I-1 Form A
Equilibration at 50° C. for 10 days in THF/water(85:15, v/v) a.w. 0.9
  XRPD: I-1 Form A
Equilibration at 50° C. for 10 days in Water
  XRPD: I-1 Form A
Equilibration at 50° C. for 10 days in t-Butyl methyl ether
  XRPD: I-1 Form A
Equilibration at 50° C. in 1,4-Dioxane, added I-1 Form B seeds and stirred for 4 days
  ee %(SFC): ee %(SFC): 80.1%*
Equilibration at 50° C. in 1,4-Dioxane, with molecular sieve and stirred for 6 days
  ee %(SFC): ee %(SFC): 88.26%*
Equilibration at 50° C. in 1,4-Dioxane, without molecular sieve and stirred for 6 days
  ee %(SFC): ee %(SFC): 81.26%*
Equilibration at 50° C. in THF, added I-1 Form B seeds and stirred for 4 days
  ee %(SFC): ee %(SFC): 82.5%*
Equilibration in ACN/water(80:20, v/v), 25° C., pH 7.27, III-1 Form A seeds, 3 days
  ee %(SFC): ee %(SFC): 90.9%*
Equilibration in ACN/water(80:20, v/v), 25° C., pH 7.27, III-1 Form A seeds, 8 days
  ee %(SFC): ee %(SFC): 89.3%*
Equilibration in ACN/water(80:20, v/v), 50° C., pH 4.48, 3 days
  ee %(SFC): ee %(SFC): 89.6%*
Equilibration in ACN/water(80:20, v/v), 50° C., pH 4.48, 5 days
  ee %(SFC): ee %(SFC): 88.9%*
Equilibration in ACN/water(80:20, v/v), 50° C., pH 6.79, 3 days
  ee %(SFC): ee %(SFC): 67.4%*
Equilibration in EtOH/water(50:50, v/v), 50° C., pH 6.82, 3 days
  ee %(SFC): ee %(SFC): 91.6%*
Equilibration in Methanol, 50° C., pH 6.21, 3 days
  ee %(SFC): ee %(SFC): 87.9%*
Slow cooling 50° C. to 5° C. from 1,4-Dioxane, SFC immediately after preparation
  ee %(SFC): ee %(SFC): −0.2%*
Slow cooling 50° C. to 5° C. from ACN
  Comments (outcome): clear solution
Slow cooling 50° C. to 5° C. from Acetone
  Comments (outcome): clear solution
Slow cooling 50° C. to 5° C. from Benzyl alcohol
  Comments (outcome): clear solution
Slow cooling 50° C. to 5° C. from MEK
  Comments (outcome): clear solution
Slow cooling 50° C. to 5° C. from MeOH
  Comments (outcome): clear solution
Slow cooling 50° C. to 5° C. from THF
  Comments (outcome): clear solution
Slow evaporation at room temperature from 1,4-Dioxane
  XRPD: Amorphous form
Slow evaporation at room temperature from ACN
  XRPD: Amorphous form
Slow evaporation at room temperature from Acetone
  XRPD: Amorphous form
Slow evaporation at room temperature from MeOH
  XRPD: III-1D
Slow evaporation at room temperature from THF
  XRPD: Amorphous form
Slow evaporation from MeOH (not pretreated by molecular sieves) at 25° C. for 12 days
  ee %(SFC): ee %(SFC): 98.0%*
Slow evaporation from MeOH/DCM(1:1, v/v), added I-1 Form D seeds
  ee %(SFC): ee %(SFC): 88.9%*
Slow evaporation from MeOH, SFC immediately after preparation
  ee %(SFC): ee % (SFC): 68.6%*
Temperature cycling 5° C. to 50° C. in 1,4-Dioxane, target concentration: 250 mg/mL
  Comments (outcome): Clear solution, target concentration: 250 mg/mL
Temperature cycling 5° C. to 50° C. in THF/water(85:15, v/v) a.w. 0.9, target concentration: 250 mg/mL
  Comments (outcome): Clear solution, target concentration: 250 mg/mL
Temperature cycling 5° C. to 50° C. in Tetrahydrofuran, target concentration: 250 mg/mL
  Comments (outcome): Clear solution, target concentration: 250 mg/mL
Temperature cycling 5° C. to 50° C., 10 cycles, in 2-MeTHF
  XRPD: I-1 Form A
Temperature cycling 5° C. to 50° C., 10 cycles, in ACN/water(80:20, v/v) a.w. 0.9
  XRPD: I-1 Form A
Temperature cycling 5° C. to 50° C., 10 cycles, in Acetone
  XRPD: I-1 Form A
Temperature cycling 5° C. to 50° C., 10 cycles, in Acetone/water(60:40, v/v) a.w. 0.8
  XRPD: I-1 Form A
Temperature cycling 5° C. to 50° C., 10 cycles, in Acetonitrile
  XRPD: I-1 Form A
Temperature cycling 5° C. to 50° C., 10 cycles, in Benzyl alcohol
  XRPD: I-1 Form A
Temperature cycling 5° C. to 50° C., 10 cycles, in EtOH/water(50:50, v/v) a.w. 0.9
  XRPD: I-1 Form A
Temperature cycling 5° C. to 50° C., 10 cycles, in Ethanol
  XRPD: I-1 Form A
Temperature cycling 5° C. to 50° C., 10 cycles, in Ethyl acetate
  XRPD: I-1 Form A
Temperature cycling 5° C. to 50° C., 10 cycles, in MeOH/water(55:45, v/v) a.w. 0.7
  XRPD: I-1 Form A
Temperature cycling 5° C. to 50° C., 10 cycles, in MeOH/water(55:45, v/v), SFC immediately after preparation
  ee %(SFC): ee %(SFC): 100.0%*
Temperature cycling 5° C. to 50° C., 10 cycles, in Methanol, SFC immediately after preparation
  ee %(SFC): ee %(SFC): 89.4%*
Temperature cycling 5° C. to 50° C., 10 cycles, in Methyl ethyl ketone
  XRPD: I-1 Form A
